Measurements reported in ChEMBL document CHEMBL5260845, “Flavone-based arylamides as potential anticancers: Design, synthesis and in vitro cell-based/cell-free evaluations” (2020).
Active and inactive are the calls of the source. The rule behind the calls is not given here.

Columns and labels:
[1] = tested on: A549; assay: Antiproliferative activity against human A549 cells assessed as cell growth inhibition at 10 uM by SRB assay relative to control; assay type: functional
[2] = tested on: NCI-H226; assay: Antiproliferative activity against human NCI-H226 cells assessed as cell growth inhibition at 10 uM by SRB assay relative to control; assay type: functional; conditions: pooled result: one value given for 4 cell lines, strains, targets or settings
[3] = tested on: SK-OV-3; assay: Antiproliferative activity against human SK-OV-3 cells assessed as inhibition of cell growth at 10 uM by SRB assay relative to control; assay type: functional
[4] = tested on: HOP-92; assay: Antiproliferative activity against human HOP-92 cells assessed as cell growth inhibition at 10 uM by SRB assay relative to control; assay type: functional
[5] = biological target: Death-associated protein kinase 2 (Homo sapiens) (UniProt Q9UIK4); assay: Inhibition of DAPK2 (unknown origin) at 10 uM by biochemical hotspot kinase assay relative to control
Sequence of Death-associated protein kinase 2 (Homo sapiens) (Q9UIK4 whole entry, looked up): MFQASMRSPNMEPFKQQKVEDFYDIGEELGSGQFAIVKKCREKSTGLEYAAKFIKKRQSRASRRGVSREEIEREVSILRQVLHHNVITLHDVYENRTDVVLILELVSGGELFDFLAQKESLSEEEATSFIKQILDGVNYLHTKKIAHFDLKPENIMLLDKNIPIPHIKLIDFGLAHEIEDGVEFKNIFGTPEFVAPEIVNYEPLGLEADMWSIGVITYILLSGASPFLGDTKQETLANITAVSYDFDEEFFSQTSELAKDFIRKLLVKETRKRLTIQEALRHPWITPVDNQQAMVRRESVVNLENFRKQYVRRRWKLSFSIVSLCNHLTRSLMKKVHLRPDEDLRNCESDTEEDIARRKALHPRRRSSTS

[6] = biological target: Mitogen-activated protein kinase 3 (Homo sapiens) (UniProt P27361); assay: Inhibition of ERK1 (unknown origin) at 10 uM by biochemical hotspot kinase assay
Sequence of Mitogen-activated protein kinase 3 (Homo sapiens) (P27361 whole entry): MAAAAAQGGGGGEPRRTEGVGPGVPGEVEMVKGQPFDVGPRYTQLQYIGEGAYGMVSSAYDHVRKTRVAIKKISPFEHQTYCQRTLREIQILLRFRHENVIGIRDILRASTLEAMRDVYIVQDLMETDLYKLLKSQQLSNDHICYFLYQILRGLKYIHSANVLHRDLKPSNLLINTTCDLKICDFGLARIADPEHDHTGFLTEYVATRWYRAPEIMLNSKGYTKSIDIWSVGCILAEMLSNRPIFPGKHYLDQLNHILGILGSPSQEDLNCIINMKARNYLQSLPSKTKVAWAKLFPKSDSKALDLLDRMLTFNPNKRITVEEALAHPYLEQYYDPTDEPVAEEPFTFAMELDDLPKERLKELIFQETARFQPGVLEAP

[7] = biological target: Death-associated protein kinase 1 (Homo sapiens) (UniProt P53355); assay: Inhibition of DAPK1 (unknown origin) at 10 uM by biochemical hotspot kinase assay
[8] = biological target: Cyclin-dependent kinase 2/cyclin A (Homo sapiens) (UniProt P24941+P20248+P78396); assay: Inhibition of CDK2/cyclin A (unknown origin) at 10 uM by biochemical hotspot kinase assay; assay type: protein-complex assay
[9] = biological target: Ephrin type-A receptor 3 (Homo sapiens) (UniProt P29320); assay: Inhibition of EPHA3 (unknown origin) at 10 uM by biochemical hotspot kinase assay relative to control
[10] = biological target: Serine/threonine-protein kinase 3 (Homo sapiens) (UniProt Q13188); assay: Inhibition of MST2 (unknown origin) at 10 uM by biochemical hotspot kinase assay relative to control
[11] = biological target: Serine/threonine-protein kinase PAK 2 (Homo sapiens) (UniProt Q13177); assay: Inhibition of PAK2 (unknown origin) at 10 uM by biochemical hotspot kinase assay
[12] = biological target: Receptor-type tyrosine-protein kinase FLT3 (Homo sapiens) (UniProt P36888); assay: Inhibition of FLT3 (unknown origin) at 10 uM by biochemical hotspot kinase assay relative to control
Sequence of Receptor-type tyrosine-protein kinase FLT3 (Homo sapiens) (P36888 whole entry): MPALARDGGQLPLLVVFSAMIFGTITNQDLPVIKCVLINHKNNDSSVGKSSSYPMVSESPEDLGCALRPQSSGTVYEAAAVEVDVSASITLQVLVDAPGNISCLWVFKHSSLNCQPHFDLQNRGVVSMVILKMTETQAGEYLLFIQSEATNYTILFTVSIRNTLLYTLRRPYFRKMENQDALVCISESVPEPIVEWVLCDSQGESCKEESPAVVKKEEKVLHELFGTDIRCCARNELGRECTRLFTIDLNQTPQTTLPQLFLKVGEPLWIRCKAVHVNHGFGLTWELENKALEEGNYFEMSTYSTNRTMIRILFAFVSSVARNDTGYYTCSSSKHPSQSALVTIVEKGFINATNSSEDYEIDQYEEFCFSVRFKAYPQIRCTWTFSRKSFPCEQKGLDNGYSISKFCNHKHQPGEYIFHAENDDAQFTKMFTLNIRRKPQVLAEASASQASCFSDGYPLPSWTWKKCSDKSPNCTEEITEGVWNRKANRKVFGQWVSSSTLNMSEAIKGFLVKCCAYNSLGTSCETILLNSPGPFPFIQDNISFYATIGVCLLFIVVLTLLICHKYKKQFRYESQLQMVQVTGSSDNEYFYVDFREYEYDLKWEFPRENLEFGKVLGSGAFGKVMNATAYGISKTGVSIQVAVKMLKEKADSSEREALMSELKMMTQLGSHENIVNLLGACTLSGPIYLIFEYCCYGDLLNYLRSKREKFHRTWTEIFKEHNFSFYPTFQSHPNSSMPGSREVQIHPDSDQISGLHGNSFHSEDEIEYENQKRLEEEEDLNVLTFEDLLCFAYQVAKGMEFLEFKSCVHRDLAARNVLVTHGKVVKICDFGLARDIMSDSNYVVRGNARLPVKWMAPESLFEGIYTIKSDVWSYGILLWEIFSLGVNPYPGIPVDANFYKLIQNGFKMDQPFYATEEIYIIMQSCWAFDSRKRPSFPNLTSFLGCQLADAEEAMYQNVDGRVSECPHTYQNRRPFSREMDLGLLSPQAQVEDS

[13] = biological target: Mitogen-activated protein kinase 7 (Homo sapiens) (UniProt Q13164); assay: Inhibition of ERK5 (unknown origin) at 10 uM by biochemical hotspot kinase assay
[14] = biological target: Death-associated protein kinase 3 (Homo sapiens) (UniProt O43293); assay: Inhibition of DAPK3 (unknown origin) at 10 uM by biochemical hotspot kinase assay
[15] = biological target: Insulin receptor (Homo sapiens) (UniProt P06213); assay: Inhibition of INSR (unknown origin) at 10 uM by biochemical hotspot kinase assay
[16] = biological target: Serine/threonine-protein kinase PAK 1 (Homo sapiens) (UniProt Q13153); assay: Inhibition of PAK1 (unknown origin) at 10 uM by biochemical hotspot kinase assay
Sequence of Serine/threonine-protein kinase PAK 1 (Homo sapiens) (Q13153 whole entry): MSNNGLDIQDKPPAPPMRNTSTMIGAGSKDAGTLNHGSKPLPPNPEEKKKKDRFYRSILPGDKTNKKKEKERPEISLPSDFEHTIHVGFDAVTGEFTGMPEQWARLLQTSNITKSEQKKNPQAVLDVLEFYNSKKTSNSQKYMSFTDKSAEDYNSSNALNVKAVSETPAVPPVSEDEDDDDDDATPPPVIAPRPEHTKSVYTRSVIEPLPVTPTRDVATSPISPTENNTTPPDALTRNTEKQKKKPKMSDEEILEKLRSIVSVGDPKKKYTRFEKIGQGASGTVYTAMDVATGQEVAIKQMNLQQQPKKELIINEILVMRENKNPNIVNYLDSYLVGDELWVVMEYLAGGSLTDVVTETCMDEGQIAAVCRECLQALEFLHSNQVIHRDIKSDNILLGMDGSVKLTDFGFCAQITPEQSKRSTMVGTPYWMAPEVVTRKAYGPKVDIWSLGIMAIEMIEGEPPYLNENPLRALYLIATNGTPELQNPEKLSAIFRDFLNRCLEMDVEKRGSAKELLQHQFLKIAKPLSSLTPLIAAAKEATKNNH

[17] = biological target: Glycogen synthase kinase-3 beta (Homo sapiens) (UniProt P49841); assay: Inhibition of GSK3beta (unknown origin) at 10 uM by biochemical hotspot kinase assay relative to control
[18] = tested on: SNB-75; assay: Antiproliferative activity against human SNB-75 cells assessed as cell growth inhibition at 10 uM by SRB assay relative to control; assay type: functional
[19] = biological target: Mitogen-activated protein kinase kinase kinase kinase 4 (Homo sapiens) (UniProt O95819); assay: Inhibition of HGK (unknown origin) at 10 uM by biochemical hotspot kinase assay relative to control
Sequence of Mitogen-activated protein kinase kinase kinase kinase 4 (Homo sapiens) (O95819 2-1239 limits assumed): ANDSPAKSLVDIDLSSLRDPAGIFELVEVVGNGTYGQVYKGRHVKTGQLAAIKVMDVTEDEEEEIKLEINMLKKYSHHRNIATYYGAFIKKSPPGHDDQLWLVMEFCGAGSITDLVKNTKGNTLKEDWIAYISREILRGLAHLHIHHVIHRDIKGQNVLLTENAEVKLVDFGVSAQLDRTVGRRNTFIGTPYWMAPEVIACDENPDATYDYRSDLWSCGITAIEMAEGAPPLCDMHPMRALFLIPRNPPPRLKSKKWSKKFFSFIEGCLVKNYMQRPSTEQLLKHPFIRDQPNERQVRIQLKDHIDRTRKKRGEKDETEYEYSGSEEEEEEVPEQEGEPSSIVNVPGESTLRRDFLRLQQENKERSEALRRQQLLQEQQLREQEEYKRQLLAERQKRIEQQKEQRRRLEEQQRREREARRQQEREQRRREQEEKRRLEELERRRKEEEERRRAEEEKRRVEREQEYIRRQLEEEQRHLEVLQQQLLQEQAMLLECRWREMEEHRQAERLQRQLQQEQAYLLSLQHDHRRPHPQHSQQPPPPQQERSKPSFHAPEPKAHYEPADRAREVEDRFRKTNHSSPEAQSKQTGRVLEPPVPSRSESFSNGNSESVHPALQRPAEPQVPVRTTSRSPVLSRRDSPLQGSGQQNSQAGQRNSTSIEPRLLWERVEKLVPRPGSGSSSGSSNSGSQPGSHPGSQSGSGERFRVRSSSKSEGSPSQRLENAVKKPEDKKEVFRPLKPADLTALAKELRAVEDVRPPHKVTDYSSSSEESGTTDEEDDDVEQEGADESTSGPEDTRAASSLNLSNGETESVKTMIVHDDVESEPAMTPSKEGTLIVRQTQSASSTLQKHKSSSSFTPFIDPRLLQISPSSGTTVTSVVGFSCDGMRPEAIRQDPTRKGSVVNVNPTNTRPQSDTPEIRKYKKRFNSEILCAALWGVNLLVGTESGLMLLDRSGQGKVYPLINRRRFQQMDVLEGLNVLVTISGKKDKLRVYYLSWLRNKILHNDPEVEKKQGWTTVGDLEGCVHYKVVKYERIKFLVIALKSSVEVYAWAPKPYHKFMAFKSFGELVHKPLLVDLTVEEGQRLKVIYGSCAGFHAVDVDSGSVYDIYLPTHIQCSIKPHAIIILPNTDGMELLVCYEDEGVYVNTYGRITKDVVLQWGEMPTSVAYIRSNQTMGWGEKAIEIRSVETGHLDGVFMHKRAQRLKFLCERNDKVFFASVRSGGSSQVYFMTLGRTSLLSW

[20] = biological target: Homeodomain-interacting protein kinase 1 (Homo sapiens) (UniProt Q86Z02); assay: Inhibition of HIPK1 (unknown origin) at 10 uM by biochemical hotspot kinase assay
Sequence of Homeodomain-interacting protein kinase 1 (Homo sapiens) (Q86Z02 whole entry, looked up): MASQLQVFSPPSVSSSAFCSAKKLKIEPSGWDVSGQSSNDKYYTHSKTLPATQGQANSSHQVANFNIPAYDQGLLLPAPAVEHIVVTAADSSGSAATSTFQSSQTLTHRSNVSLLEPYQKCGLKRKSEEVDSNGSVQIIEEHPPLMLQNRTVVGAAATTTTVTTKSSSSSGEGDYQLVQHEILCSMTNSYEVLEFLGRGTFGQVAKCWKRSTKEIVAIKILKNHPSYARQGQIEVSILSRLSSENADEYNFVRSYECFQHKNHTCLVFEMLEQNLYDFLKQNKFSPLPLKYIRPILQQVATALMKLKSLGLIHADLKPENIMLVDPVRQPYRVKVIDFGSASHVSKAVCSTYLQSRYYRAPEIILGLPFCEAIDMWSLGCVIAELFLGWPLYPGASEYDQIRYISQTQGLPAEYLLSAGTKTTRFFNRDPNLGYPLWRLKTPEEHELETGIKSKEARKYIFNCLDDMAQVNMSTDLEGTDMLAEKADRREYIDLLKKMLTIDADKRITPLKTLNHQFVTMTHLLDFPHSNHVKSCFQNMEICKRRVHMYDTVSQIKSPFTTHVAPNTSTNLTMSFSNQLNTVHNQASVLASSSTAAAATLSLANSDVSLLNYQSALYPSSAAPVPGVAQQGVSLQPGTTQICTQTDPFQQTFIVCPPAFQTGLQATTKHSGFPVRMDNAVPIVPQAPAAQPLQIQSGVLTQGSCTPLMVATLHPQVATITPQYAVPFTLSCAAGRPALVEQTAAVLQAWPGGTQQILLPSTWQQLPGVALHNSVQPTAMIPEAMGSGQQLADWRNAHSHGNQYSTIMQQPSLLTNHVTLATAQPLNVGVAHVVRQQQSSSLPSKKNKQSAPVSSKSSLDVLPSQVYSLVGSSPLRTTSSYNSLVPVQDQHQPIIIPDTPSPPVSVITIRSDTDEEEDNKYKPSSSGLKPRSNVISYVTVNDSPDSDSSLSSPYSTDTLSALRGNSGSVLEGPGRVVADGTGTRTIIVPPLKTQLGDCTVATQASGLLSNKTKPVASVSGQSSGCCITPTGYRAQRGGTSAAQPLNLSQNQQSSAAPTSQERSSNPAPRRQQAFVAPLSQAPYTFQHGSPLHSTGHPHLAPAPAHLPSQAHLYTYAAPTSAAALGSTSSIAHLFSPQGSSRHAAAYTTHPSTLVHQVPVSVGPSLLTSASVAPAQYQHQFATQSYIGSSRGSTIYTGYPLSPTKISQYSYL

[21] = biological target: Angiopoietin-1 receptor (Homo sapiens) (UniProt Q02763); assay: Inhibition of TIE2 (unknown origin) at 10 uM by biochemical hotspot kinase assay relative to control

COc1cc2oc(-c3cccc(C(=O)Nc4ccc(Cl)cc4)c3)cc(=O)c2c(OC)c1OC showed an inhibition at 10 µM [1] of 74.8%, an inhibition at 10 µM [2] of 51.8% and an inhibition at 10 µM [3] of 56.9%. The inhibition at 10 µM [4] was 87.2%.
For COc1cc2oc(-c3cccc(C(=O)Nc4ccc(C)cc4)c3)cc(=O)c2c(OC)c1OC, the inhibition [5] was 0.74%, the inhibition [6] was “inactive” and the inhibition [7] was “inactive”. The inhibition [8] was “inactive”, the inhibition [9] was 7.95% and the inhibition [10] was 14.2%. The inhibition [11] was “inactive”, the inhibition [12] was 10.7% and the inhibition [13] was “inactive”. The inhibition [14] was “inactive”, the inhibition [15] was “inactive” and the inhibition [16] was “inactive”. It also gave an inhibition [17] of 1.03%, an inhibition at 10 µM [18] of over 50% and an inhibition [19] of 48.8%. For the same molecule, the inhibition [20] was “inactive” and the inhibition [21] was 0.46%.
